From patent publication US20100291242A1, “ANTAGONIST AGAINST TOLERANCE TO ANTICANCER DRUGS” (Yoshikazu SUGIMOTO, priority 2004, published 2010)
Converted amounts (≈) assume the structure as drawn. Read-outs that look alike come from different tables or passages of the source. Blank lines part the entries; values can stand above or below the compound they belong to.

Key:
MCF-7/MycBCRP cells = assay: Cell growth inhibition test, MCF-7/MycBCRP cells; assay type: cell-based, human; settings: for IC50 (concentration at which cell growth is inhibited by 50%) / IC50: 4 days; for IC50: Homo sapiens, MCF7, 96 h, read-out: IC50 (concentration at which cell growth is inhibited by 50%)
Procedure: The cells were named MCF-7/MycBCRP. […] In each lane, 20 μg of protein was electrophoresed.
(§1) A cell growth inhibition test was performed to investigate the sensitivity of MCF-7 cells and MCF-7/MycBCRP cells to SN-38. Respective cells were seeded on 12-well plates (Iwaki) in amounts of 30,000 cells/1 mL/well. Subsequently, the drug, diluted with a medium to different concentrations, was added thereto (1 mL per well). The plates were placed in a 5% CO2 incubator and cultivation was performed at 37° C. for […]. Four days after, a cell solution in each well was added to a beaker containing a […] diluent (9.5 mL, To a Medical Electronics Co.). The number of cells was counted by means of a Sysmex CDA-500 automatic cell counter (To a Medical Electronics Co.).
(§2) A cell growth inhibition test was performed to investigate whether estradiol induces any change in sensitivity of MCF-7 cells and MCF-7/MycBCRP cells to SN-38. Respective cells were seeded on 12-well plates (Iwaki) in amounts of 30,000 cells/1 mL/well. Subsequently, the drug, diluted with a medium to different concentrations, was added thereto (1 mL per well). The final concentration of estradiol was adjusted to 0.03 nM or 3 nM. The plates were placed in a 5% CO2 incubator and cultivation was performed at 37° C. for 4 days. Four days after, a cell solution in each well was added to a beaker containing a […] diluent (9.5 mL, To a Medical Electronics Co.). The number of cells was counted by means of a Sysmex CDA-500 automatic cell counter (To a Medical Electronics Co.). In FIG. 4, the cell count is shown by “% of control,” which was obtained by dividing “the cell count as measured when the drug diluted to have different concentrations was added” by “the cell count as measured when no such drug was added.”

MCF-7 cells = assay: Cell growth inhibition test, MCF-7 cells; assay type: cell-based, human; settings: for IC50 (concentration at which cell growth is inhibited by 50%) / IC50: 4 days; for IC50: Homo sapiens, MCF7, 96 h, read-out: IC50 (concentration at which cell growth is inhibited by 50%)
Procedure: as §1, §2

BCRP = settings: MCF-7 cells
Procedure: Western blotting was performed to investigate the effect of a steroid hormone and a female hormone on MCF-7, A549, and JEG-3 cells, which intrinsically express BCRP at high level, in terms of the expression level of BCRP. […] Afterwards, expression level of BCRP was determined through the Western blotting technique using an anti-BCRP antibody. In each lane, 30 μg of protein was electrophoresed.

p-glycoprotein = assay: Western blotting of exogenous p-glycoprotein expression in MCF-7/MDR1 cells; assay type: cell-based, human; settings: estradiol 3 nM, 4 days, antibody C219

Compound: CCc1c2c(nc3ccc(O)cc13)-c1cc3c(c(=O)n1C2)COC(=O)[C@]3(O)CC [SN-38, 7-ethyl-10-hydroxycamptothecin]
increase in sensitivity at estradiol 3 nM as compared with 0.03 nM (MCF-7/MycBCRP cells): about twice | IC50 (concentration at which cell growth is inhibited by 50%) (MCF-7/MycBCRP cells; E2 (estradiol) 0.03 nM): 2.13 ± 0.19 ng/mL (≈ 5.43 nM) | IC50 (concentration at which cell growth is inhibited by 50%) (MCF-7/MycBCRP cells; E2 (estradiol) 3 nM): 1.09 ± 0.09 ng/mL (≈ 2.78 nM) | sensitivity at estradiol 0.03 nM and 3 nM (in words) (MCF-7 cells): almost the same level | IC50 (concentration at which cell growth is inhibited by 50%) (MCF-7 cells; E2 (estradiol) 0.03 nM): 0.64 ± 0.06 ng/mL (≈ 1.63 nM) | IC50 (concentration at which cell growth is inhibited by 50%) (MCF-7 cells; E2 (estradiol) 3 nM): 0.50 ± 0.02 ng/mL (≈ 1.27 nM)

IC50 (MCF-7/MycBCRP cells; E2 (estradiol) 0.03 nM): 0.68 ± 0.03 ng/mL (≈ 0.824 nM) | IC50 (MCF-7/MycBCRP cells; E2 (estradiol) 3 nM): 0.6 ± 0.02 ng/mL (≈ 0.727 nM) | IC50 (MCF-7 cells; E2 (estradiol) 0.03 nM): 0.64 ± 0.01 ng/mL (≈ 0.776 nM) | IC50 (MCF-7 cells; E2 (estradiol) 3 nM): 0.6 ± 0.02 ng/mL (≈ 0.727 nM)
Compound: CC[C@]1(O)C[C@H]2CN(CCc3c([nH]c4ccccc34)[C@@](C(=O)OC)(c3cc4c(cc3OC)N(C=O)[C@H]3[C@@](O)(C(=O)OC)[C@H](OC(C)=O)[C@]5(CC)C=CCN6CC[C@]43[C@@H]65)C2)C1 [Vincristine, vincristine]

Compound: CC/C(=C(/CC)c1ccc(O)cc1)c1ccc(O)cc1 [diethylstilbestrol]
effect on expression of endogenous BCRP (in words) (BCRP): suppressive effect

Compound: C[C@]12CC[C@@H]3c4ccc(O)cc4CC[C@H]3[C@@H]1CC[C@@H]2O [estradiol]
decrease of expression level of exogenous p-glycoprotein (p-glycoprotein): about 20%
